In brackets after ≈: the same amount, converted by molar mass. Entries after “also recorded” stand apart in the source; their conditions may differ.
Columns and labels:
[1] = Solubility of polymorphic forms in simulated intestinal fluids by HPLC; assay type: physicochemical; settings: for Solubility / pH of Saturated solution: 25° C., equilibrated 24 hours
Procedure: The solubility of Form 1, Form 2 and Form 3 was determined by HPLC in fasted state simulated intestinal fluid (FaSSIF) and fed state simulated intestinal fluid (FeSSIF) at 25° C. FaSSIF and FeSSIF were prepared from SIF powder, available at PHARES, Switzerland. Suspensions of […] were prepared and equilibrated for 24 hours at 25° C. The suspensions were filtered. The pH values of the resulting saturated solutions were measured. The filtrates were diluted and analyzed by HPLC using a general, unoptimized method. The values listed below are averages over multiple repetitions. Additionally Raman spectra of the recovered solids were recorded.

[2] = Thermodynamic stability of polymorphic forms (suspension equilibration); assay type: physicochemical
Procedure: Polymorphic Form 3 has a melting signal at 200° C. as measured by differential scanning calorimetry and is stable at temperatures above about 60-65° C.
A mixture with similar ratios of the products of Example 4, Experiment 15 (Form 1), Example 4, Experiment 9 (form 2+x) and Example 4, Experiment 6 (Form 2+Form 3) were suspended in acetonitrile and shaken for 13 days at 22° C. to give a product designated Product P24). The solid was recovered by filter centrifugation and characterized by PXRD. […] These signals could be assigned to (i) another crystalline form or (ii) the signals could not be detected for Product P24 because the diffractogram has a lower intensity.
Thus, after 13 days at 22° C. the PXRD corresponds to that of Form 2.

CRTH2 receptor = target: T1, CRTH2 receptor (Homo sapiens, UniProt Q9Y5Y4); settings: cited from earlier work
T1 sequence (Q9Y5Y4 1-395): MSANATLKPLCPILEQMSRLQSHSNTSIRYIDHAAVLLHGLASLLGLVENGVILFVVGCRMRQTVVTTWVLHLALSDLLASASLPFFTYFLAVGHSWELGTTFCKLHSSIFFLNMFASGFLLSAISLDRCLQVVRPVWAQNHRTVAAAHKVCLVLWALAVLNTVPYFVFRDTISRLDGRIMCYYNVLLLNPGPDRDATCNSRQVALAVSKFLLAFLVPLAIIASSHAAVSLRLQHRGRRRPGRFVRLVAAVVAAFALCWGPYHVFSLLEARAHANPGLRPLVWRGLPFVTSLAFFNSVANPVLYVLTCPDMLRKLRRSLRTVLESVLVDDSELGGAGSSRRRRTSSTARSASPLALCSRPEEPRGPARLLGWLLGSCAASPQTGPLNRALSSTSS

[3] = Dynamic vapour sorption (DVS); assay type: physicochemical
Procedure: DVS (SPS): Sorption Measurement System SPS11-100n. The sample was placed in an Al crucible, and the sample was allowed to equilibrate at a given r.h. before starting a predefined humidity program. The used measurement program can be recognized in the corresponding figures (blue line).
In order to examine the behaviour of Batch 1 in the presence of variable water vapour pressure, the sample was analyzed by DVS. […] The sample was conditioned at 50% r.h. before starting a pre-defined humidity program with a scanning rate of 5% r.h. change per hour. Below 50% r.h. a continuous mass loss is observed. […] At relative humidities above 84% r.h. an increased water uptake is observed. At 95% r.h. no equilibrium is reached. This is typical for amorphous material. At the end of the measurement (end humidity 50% r.h.) the sample has a 0.6% higher mass as the starting material. The sample was checked by FT-Raman (pre- and post DVS measurements).

TG-FTIR thermogravimetry = assay type: physicochemical; settings: 25° C. to 250° C., heating rate 10° C./min
Procedure: TG-FTIR: Thermogravimetric measurements were carried out with a Netzsch Thermo-Microbalance TG 209 coupled to a Bruker FTIR Spectrometer Vector 22 or IFS 28 (sample pans with a pinhole, N2 atmosphere, heating rate 10° C./min, range 25° C. up to 250° C.).
Batch 3 was analyzed by TG-FTIR in a temperature range of 25° C. to 250° C. and a heating rate of 10° C./min. […] Decomposition occurs above ˜160° C. Therefore the material is likely a non-solvated form.

SMILES | Solubility ([1]; FaSSIF) [mg/mL] | pH of Saturated solution ([1]; FaSSIF) | Solubility ([1]; FeSSIF) [mg/mL] | pH of Saturated solution ([1]; FeSSIF) | Temperature range of thermodynamic stability [2] | further results
Cc1c(Cc2cccnc2S(=O)(=O)c2ccc(F)cc2)c2cc(F)ccc2n1CC(=O)O [Form 3, [5-fluoro-3-({2-[(4-fluorobenzene)sulfonyl]pyridin-3-yl}methyl)-2-methylindol-1-yl]-acetic acid] | 1.31 (≈ 2870 µM) | 5.4 | 2.12 (≈ 4640 µM) | 5.0 | 60-65 °C | Comparative solubility among crystalline forms ([1]; FaSSIF and FeSSIF): most soluble crystalline form; also recorded: more soluble in both FaSSIF and FeSSIF
Cc1c(Cc2cccnc2S(=O)(=O)c2ccc(F)cc2)c2cc(F)ccc2n1CC(=O)O [Compound 1, [5-fluoro-3-({2-[(4-fluorobenzene)sulfonyl]pyridin-3-yl}methyl)-2-methylindol-1-yl]-acetic acid] | – | – | – | – | – | CRTH2 antagonist activity (CRTH2 receptor): has CRTH2 antagonist activity
Cc1c(Cc2cccnc2S(=O)(=O)c2ccc(F)cc2)c2cc(F)ccc2n1CC(=O)O [Form 1, [5-fluoro-3-({2-[(4-fluorobenzene)sulfonyl]pyridin-3-yl}methyl)-2-methylindol-1-yl]-acetic acid] | 0.72 (≈ 1580 µM) | 5.7 | 1.18 (≈ 2590 µM) | 4.9 | thermodynamically stable at high temperatures | –
Cc1c(Cc2cccnc2S(=O)(=O)c2ccc(F)cc2)c2cc(F)ccc2n1CC(=O)O [Batch 1, [5-fluoro-3-({2-[(4-fluorobenzene)sulfonyl]pyridin-3-yl}methyl)-2-methylindol-1-yl]-acetic acid] | – | – | – | – | – | Mass change at end of DVS measurement versus starting material ([3]; end humidity 50% r.h., 5% r.h. change per hour): 0.6%; Phase transition after DVS (FT-Raman pre- and post) ([3]; sample recovered from DVS): no phase transition
Cc1c(Cc2cccnc2S(=O)(=O)c2ccc(F)cc2)c2cc(F)ccc2n1CC(=O)O [Form 2, [5-fluoro-3-({2-[(4-fluorobenzene)sulfonyl]pyridin-3-yl}methyl)-2-methylindol-1-yl]-acetic acid] | 0.55 (≈ 1200 µM) | 6.1 | 0.35 (≈ 767 µM) | 5.0 | 60-65 °C | Most stable form after suspension equilibration of a mixture of forms ([2]; acetonitrile, 13 days at 22° C., PXRD): most stable form at room temperature
Cc1c(Cc2cccnc2S(=O)(=O)c2ccc(F)cc2)c2cc(F)ccc2n1CC(=O)O [Batch 3, [5-fluoro-3-({2-[(4-fluorobenzene)sulfonyl]pyridin-3-yl}methyl)-2-methylindol-1-yl]-acetic acid] | – | – | – | – | – | Decomposition temperature (TG-FTIR thermogravimetry): > 160 °C

— patent US9951042B2, “Polymorphic form of [5-fluoro-3-({2-[(4-fluorobenzene) sulfonyl] pyridin-3-yl}methyl)-2-methylindol-1-yl]-acetic acid” (Atopix Therapeutics Limited, priority 2014, dated 2018)
